# In patent US20110183948A1, “TREATMENT OF FIBROTIC CONDITIONS USING HEDGEHOG INHIBITORS” (INFINITY PHARMACEUTICALS, INC., priority 2010, published 2011):
# Several values for one entry are separate records, joined by “and”; a condition that tells them apart may be missing. Equal entries are not always repeated. Entries after “also recorded” stand apart in the source; their conditions may differ.
# Assays:
# [1] = tested on: pulmonary fibrosis induced by bleomycin; assay: Example 2B bleomycin-induced pulmonary fibrosis: hydroxyproline; format: in vivo, C57BL/6 mice; details: treatment begun on the day of bleomycin insult
# Experimental: (§1) Experimental conditions used in this study are similar to the ones described in Example 2A. […] Mice were treated with bleomycin (BLM) on day 0 and controls received saline (SAL).
# [2] = tested on: white blood cells in bronchiolar lavage fluid; assay: Bleomycin-induced pulmonary fibrosis model (INF-01): bronchiolar lavage fluid cell counts; format: in vivo, C57BL/6 mice; set-up: Bronchiolar lavage fluid counts WBC: unit not given here; details: for Bronchiolar lavage fluid counts % lymph / Bronchiolar lavage fluid counts % monos / Bronchiolar lavage fluid counts % neutro / Bronchiolar lavage fluid counts WBC: individual animals
# Experimental: (§2) Thirty-two C57/B6 mice were prospectively randomized into four equally sized groups of eight animals each. An additional four mice served as naïve controls. Pulmonary fibrosis was induced with a single dose of bleomycin (4 U/kg) given intra-nasally on Day 0. Animals' activity and weight were evaluated daily. IPI 926 or vehicle was given every other day from 10 days prior to bleomycin until sacrifice on Day 30, or IPI926 was given beginning on either Day 0 or Day 14 on alternate days until the end of the study. At the end of the study on Day 30, all mice were euthanized and bronchiolar lavage performed to enable an evaluation of the inflammatory infiltrate in the lungs and collect the fluid for possible cytokine evaluation. One lung from each animal was collected for histology, while the other was snap frozen and retained for possible additional analyses.
# At necropsy, the inflammatory infiltrated was evaluated by counting cells in the fluid collected following bronchiolar lavage. Bronchiolar lavage was performed by inserting a 20-gauge cannula into the trachea, which was tied in place with suture. The cannula was attached to a 1 mL syringe which was used to deliver and then recover 1 mL of sterile PBS. This fluid was then centrifuged to recover the cells and the resulting fluid saved for potential evaluation. Cell counts were performed on a HTI PCE-90vet automated veterinary hematology analyzer.
# At sacrifice, BAL fluids were collected from all animals. The cells from these fluids were evaluated for differential white count. The fluids were retained for cytokine analysis.
# [3] = tested on: experimental liver metastasis; assay: Mouse model of experimental liver metastasis; format: in vivo; details: prophylactic administration
# [4] = tested on: Sonic Hedgehog (SHh) and Gli-1; assay: Immunohistochemistry of lung samples from the bleomycin lung fibrosis study for SHh and Gli-1; format: in vivo, C57BL/6 mice
# Experimental: I. IHC protocol to detect Gli1 on murine and human tissues: Rabbit anti-mouse Gli1 (Novus Biologicals NBP1-03294), Whole Rabit IgG2 Positive control: RMS, BCC
# • 1. Dilute the Gli1, 1:200, in DaVinci Green Diluent. Add ratIgG2a, at same dilution, to the negative controls. Add a volume of 300 μl to each slide. • 2. Incubate for 1.5 hours at room temperature.
# Rabbit anti-human SHh (Abcam# ab53281). Isotype control: Whole Rabbit IgG Positive control: Pancreatic xenograft Secondary: Rabbit-on-Rodent Polymer (Biocare Medical RMR622) for xenografts or Mach 2 (Biocare Medical RHRP520) for human tissue Wash buffer: PBS+0.5% Tween Citrate Retrieval buffer DaVinci Green Primary Ab diluent (Biocrae Medical PD900) DAB Enhancer (Zymed Cat. No. 00-2021)
# • 1. Dilute the SHH, 1:2000 (optimized on the DAKO autostainer), in DaVinci Green Diluent. Add RabbitIgG, at same dilution, to the negative controls. Add a volume of 300 μl to each slide. • 2. Incubate for 90 minutes at room temperature.
# [5] = Example 2B bleomycin-induced pulmonary fibrosis: body weight and survival; format: in vivo, C57BL/6 mice
# Experimental: as §1
# The effects of IPI-926 in body weight and survival that accompany bleomycin insult are shown in FIGS. 15 and 16, respectively.
# [6] = tested on: pancreatic adenocarcinoma; assay: KPC mouse model of pancreatic adenocarcinoma / pancreatic animal models; format: in vivo
# [7] = Bleomycin-induced pulmonary fibrosis model in C57BL/6 mice (study INF-01): body weight and survival; format: in vivo
# Experimental: as §2
# (§3) Bleomycin, a glycopeptides anti-cancer agent originally isolated from Streptomyces verticillus is currently approved for use against squamous cell carcinoma, testicular cancer and Hodgkin's disease. Pulmonary fibrosis is a significant toxicity associated with the use of bleomycin, occurring in a significant percentage of patients undergoing bleomycin therapy. In C57/B6 mice, pulmonary inflammation and subsequent fibrosis is reproducible following bleomycin treatment, and the severity of pulmonary fibrosis is dose-dependent with higher doses being used to evaluate short term inflammatory effects, while lower doses are used to study the longer term impact of pulmonary fibrosis. In this model, mice are given 4 U/kg of bleomycin intranasally and pulmonary fibrosis is evaluated histologically 30 days after the administration of the bleomycin.
# Oral administration by gavage QOD for 30 days 40 mg/kg Administered volume varies by weight
# Thirty-six (36) female C57B1/6 mice (Charles River Laboratories), aged 5 to 6 weeks, with a mean body weight of 19.7 g at study commencement, were used. Animals were individually numbered using an ear punch and housed in groups of eight animals per cage. Animals were acclimatized for 3 days prior to study commencement. During acclimatization, the animals were observed daily in order to reject animals that presented in poor condition.
# Pulmonary fibrosis was induced with a single intra-nasal administration of bleomycin at 4 U/kg in 25 μL of saline. Animals were anesthetized by breathing isoflurane in a closed chamber (2-3% isoflurane 200-300 mls oxygen) to effect. When non-responsive to toe pinch, each animal was held in one hand in an upright position and the bleomycin placed in nares and the droplet watched until inhaled. […]
# Animals were weighed and evaluated for respiratory distress daily. […]
# All animals were weighed and evaluated for respiratory distress daily throughout this study. […]
# [8] = tested on: pulmonary fibrosis induced by bleomycin; assay: Bleomycin-induced pulmonary fibrosis model (INF-01): lung histology scoring; format: in vivo, C57BL/6 mice; set-up: key to Chronic Inflammation (0-5): 0: None present; 1: Rare foci; minimal; 2: Scattered aggregates or mild diffuse inflammation; 3: Numerous aggregates or moderate diffuse inflammation; 4: More marked inflammation either scattered or diffuse; 5: More severe inflammation either scattered diffuse inflammation; details: for pulmonary fibrosis and associated inflammation compared to the vehicle control group: 40 mg/kg, not statistically significant (Kruskal-Wallis); for mean interstitial fibrosis foci count: foci that fill a 10x objective field; for mean chronic inflammation score / mean interstitial fibrosis score: scale 0-5; for Chronic Inflammation (0-5) / Interstitial Fibrosis (0-5) / Number of Foci of Interstitial Fibrosis that Fill a 10x Objective Field: individual animals
# Experimental: as §2, §3
# Each lung sample was trimmed into 1-3 sections. Tissues were embedded in paraffin and sectioned at approximately 5 microns. Two slides for each lung were stained. One was stained with hematoxylin and eosin (H&E) and another serial section was stained with a trichrome stain. All slides were examined by a board-certified veterinary pathologist. Tissues were scored for chronic inflammation and interstitial fibrosis according to the criteria in Table 5 below. In addition the number of foci of interstitial fibrosis in the lung that filled a 10× objective field (100× total magnification) were counted and reported. Statistical analysis was performed with GraphPad Prism version 4.03 and included a Kruskal-Walis test followed by a Dunn's post-test comparing all groups to each other. Individual animal findings are listed herein in the Tables below.
# Lungs were taken at sacrifice on Day 30 for analysis. Lungs were removed and partitioned in two halves. On half was fixed in 10% formalin, before embedding and sectioning. Slides made from each sample were stained with H&E or Masson's Trichrome. The other half of lung sample were snap-frozen in liquid nitrogen and stored at −80 C for future analysis of mRNA by QT-PCR and/or proteomic analysis.
# [9] = Group 2: Qod, Day −10 to Day 30
# [10] = groups Day 0 to 30 or Day 14 to 30
# [11] = Group 3: Qod, Day 0 to Day 30, individual animals
# [12] = all three treatments, Day-10 to Day 30 greatest effect
structure (smiles),measurement,setting,value
CC1=C2C[C@H]3[C@@H](CC[C@@H]4C[C@H](NS(C)(=O)=O)CC[C@@]43C)[C@@H]2CC[C@@]2(C1)O[C@@H]1C[C@H](C)CN[C@H]1[C@H]2C [IPI-926],fibrosis as ug of hydroxproline per g of animal body weight,[1],reduces the fibrosis caused by bleomycin
same,mean lymphocytes in bronchiolar lavage fluid,[2]; Day −10 to 30,41%
same,mean monocytes in bronchiolar lavage fluid,[2]; Day −10 to 30,1.5%
same,mean neutrophils in bronchiolar lavage fluid,[2]; Day −10 to 30,48%
same,mean WBC count in bronchiolar lavage fluid,[2]; Day −10 to Day 30,1.53 ×10^6 cells/μL
same,mean WBC count in bronchiolar lavage fluid,[2]; Days 0-30,1.09 ×10^6 cells/μL
same,mean WBC count in bronchiolar lavage fluid,[2]; Days 14-20 (so in the source),0.79 ×10^6 cells/μL
same,Bronchiolar lavage fluid counts % lymph,[2]; [9],43% and 44% (2×) and 41% and 26% and 46%
same,Bronchiolar lavage fluid counts % monos,[2]; [9],4% (2×) and 6% (2×) and 8% and 3%
same,Bronchiolar lavage fluid counts % neutro,[2]; [9],43% and 41% and 48% and 60% and 49% and 47%
same,Bronchiolar lavage fluid counts WBC,[2]; [9],0.6 and 1.3 and 2.1 (2×) and 1.9 and 1.2
same,Bronchiolar lavage fluid counts % lymph,"[2]; Group 3: Qod, Day 0 to Day 30",41% and 45% and 46% (2×) and 40% and 56% and 51% and 49%
same,Bronchiolar lavage fluid counts % monos,"[2]; Group 3: Qod, Day 0 to Day 30",4% (4×) and 3% (2×) and 7% and 5%
same,Bronchiolar lavage fluid counts % neutro,"[2]; Group 3: Qod, Day 0 to Day 30",43% and 47% and 44% and 52% and 41% and 34% and 42% and 45%
same,Bronchiolar lavage fluid counts WBC,"[2]; Group 3: Qod, Day 0 to Day 30",1.3 (3×) and 0.1 and 0.9 and 1.5 and 1.1 and 1.2
same,Bronchiolar lavage fluid counts % lymph,"[2]; Group 4: Qod, Day 14 to Day 30",51% and 53% and 54% and 42% and 55% and 46% and 45% and 49%
same,Bronchiolar lavage fluid counts % monos,"[2]; Group 4: Qod, Day 14 to Day 30",3% (3×) and 9% and 4% and 1% and 2% and 11%
same,Bronchiolar lavage fluid counts % neutro,"[2]; Group 4: Qod, Day 14 to Day 30",42% and 28% and 41% and 50% and 35% and 49% and 43% and 45%
same,Bronchiolar lavage fluid counts WBC,"[2]; Group 4: Qod, Day 14 to Day 30",1.1 (2×) and 0.9 (3×) and 0.4 (2×) and 0.6
same,white cell count in bronchiolar lavage,"[2]; all groups treated, greatest in Day 14 to Day 30 group",reductions in the number of white cells in the bronchiolar lavage; also recorded: Reductions in white cell count
same,mean lymphocytes in bronchiolar lavage fluid,[2]; [10],47-49%
same,mean neutrophils in bronchiolar lavage fluid,[2]; [10],42-44%
same,metastatic spread and survival,[3],dramatic effects on metastatic spread and survival
same,SHh immunoreactivity,"[4]; d=−10, d=0, d=14",only IPI-926 administered at d=−10 appeared to have an effect on this signal
same,Gli-1 immunoreactivity in comparison to vehicle treatment,"[4]; d=−10, d=0 and d=14",appears to decrease the Gli-1 immunoreactivity
same,animal death / survival after bleomycin administration,[5],significantly abrogates the increase in animal death
same,body weight loss that accompanies bleomycin insult,[5],reduces the dramatic loss in body weight
same,desmoplastic infiltration,[6]; KPC mouse model,inhibition of desmoplastic infiltration
same,metastasis,[6]; KPC mouse model,decreased metastasis
same,survival,[6]; KPC mouse model,increased survival
same,desmoplastic component,[6]; pancreatic animal models,dramatic effect on the desmoplastic component
same,"Daily Animal Weights, Day 14",[7]; [11],21.09
same,"Daily Animal Weights, Day 27",[7]; [11],21.09
same,animals that died or were euthanized,[7]; group treated from Day −10 to Day 30,sac'd
same,weight gain relative to vehicle controls,"[7]; mouse, in vivo",reductions in weight gain relative to vehicle controls
same,pulmonary fibrosis and associated inflammation compared to the vehicle control group,[8],reduction in pulmonary fibrosis and associated inflammation
same,pulmonary fibrosis and associated inflammation compared to the vehicle control group,[8]; listed as IPI926,effective in reducing the histological features of bleomycin induced pulmonary fibrosis
same,mean interstitial fibrosis foci count,[8]; Day −10 to Day 30,2.1
same,mean chronic inflammation score,[8]; Day −10 to Day 30,1.0
same,mean interstitial fibrosis score,[8]; Day −10 to Day 30,1.0
same,mean interstitial fibrosis foci count,[8]; Days 0 to 30,3.4
same,mean chronic inflammation score,[8]; Days 0 to 30,1.1
same,mean interstitial fibrosis score,[8]; Days 0 to 30,1.1
same,mean interstitial fibrosis foci count,[8]; Days 14 to 30,5.9
same,mean chronic inflammation score,[8]; Days 14 to 30,1.6
same,mean interstitial fibrosis score,[8]; Days 14 to 30,1.6
same,Chronic Inflammation (0-5),[8]; [9],1
same,Interstitial Fibrosis (0-5),[8]; [9],1 (1-6 foci that fill a 10x objective field)
same,Number of Foci of Interstitial Fibrosis that Fill a 10x Objective Field,[8]; [9],2 (2×) and 1 (3×) and 4 (2×)
same,Chronic Inflammation (0-5),"[8]; Group 3: Qod, Day 0 to Day 30",1 (7×) and 2
same,Interstitial Fibrosis (0-5),"[8]; Group 3: Qod, Day 0 to Day 30",1 (1-6 foci that fill a 10x objective field) (7×) and 2 (7-12 foci that fill a 10x objective field)
same,Number of Foci of Interstitial Fibrosis that Fill a 10x Objective Field,"[8]; Group 3: Qod, Day 0 to Day 30",2 (3×) and 10 and 1 (2×) and 4 and 5
same,Chronic Inflammation (0-5),"[8]; Group 4: Qod, Day 14 to Day 30",1 (5×) and 3 (2×) and 2
same,Interstitial Fibrosis (0-5),"[8]; Group 4: Qod, Day 14 to Day 30",1 (1-6 foci that fill a 10x objective field) (5×) and 3 (13-18 foci that fill a 10x objective field) (2×) and 2 (7-12 foci that fill a 10x objective field)
same,Number of Foci of Interstitial Fibrosis that Fill a 10x Objective Field,"[8]; Group 4: Qod, Day 14 to Day 30",2 (4×) and 14 and 17 and 7 and 1
same,Chronic Inflammation Scores compared to Vehicle (FIG. 7),"[8]; all three treatments, Day 0 to Day 30 greatest effect",reduce inflammation compared to the Vehicle control group
same,Interstitial Fibrosis Scores compared to Vehicle (FIG. 8),[8]; [12],reduce inflammation compared to the Vehicle control group
same,number of foci of interstitial fibrosis compared to Vehicle (FIG. 9),[8]; [12],reduce inflammation compared to the Vehicle control group
same,amount of lung fibrosis induced by bleomycin,"[8]; d=−10, Mann-Whitney test, p<0.05",decreases the amount of lung fibrosis induced by bleomycin in a statistically significant manner
